Measured values as given in US7030157B2, “Pharmaceutical compositions, kits and methods comprising combinations of estrogen agonists/antagonists, estrogens and progestins” (priority 2001, dated 2006).
Entries after “also recorded” stand apart in the source; their conditions may differ.

Legend:
[1] = Total serum cholesterol (TSC) in OVX rats; assay type: in vivo, Sprague-Dawley female rats; conditions: daily gavage 28 days, EE 0.03 mg/kg, LAS 0.1 mg/kg
Description: (§1) Sprague-Dawley female rats at 5.5 months of age were used in this study. Rats underwent either sham-operation or bilateral ovariectomy. Beginning at 1 day post-surgery, the rats were treated (daily gavage) with vehicle, 17α-ethanyl estradiol (EE) alone, lasofoxifene (LAS) alone, or combination of both EE and LAS for 28 days, according to the following protocol.
(§2) There were 10 rats in each group. All rats received subcutaneous injections of the fluorescent marker, calcein, at 10 mg/kg on days 12 and 2 before necropsy in order to determine dynamic bone changes. After 28 days of treatment, the rats were necropsy, and the following endpoints were determined. • Body weight • Total serum cholesterol (TSC) • Uterine wet weight • Peripheral quantitative computerized tomography (pQCT). A pQCT X-ray machine (Stratec XCT Reasearch M, Norland Medical Systems, Fort Atkinson, Wis.) with version 5.40 was used to scan femurs from this study. […] Cortical bone was defined and analyzed using contour mode 2 and cortical mode 4. […] Furthermore, cortical bone along the endocortical surface was determined with an inner threshold of 529 mg/cm^3. […] For trabecular and cortical bone, content, density and area were determined. […]
(§3) Statistics were calculated using StatView 4.0 software (Abacus Concepts, Inc., Berkeley, Calif.). […]

uterus of OVX rats = experiment: Uterine wet weight in OVX rats
Description: as §1, §2, §3

OVX-induced bone loss = experiment: pQCT of the distal femur in OVX rats; assay type: in vivo, Sprague-Dawley female rats; conditions: for pQCT cortical content, distal femur / pQCT total density, distal femur: daily gavage 28 days, EE 0.03 mg/kg, LAS 0.1 mg/kg; for OVX-induced bone loss: fully efficacious doses (EE 0.03 mg/kg, LAS 0.1 mg/kg), 28 days
Description: as §1
(§4) There were 10 rats in each group. All rats received subcutaneous injections of the fluorescent marker, calcein, at 10 mg/kg on days 12 and 2 before necropsy in order to determine dynamic bone changes. After 28 days of treatment, the rats were necropsy, and the following endpoints were determined. • Body weight • Total serum cholesterol (TSC) • Uterine wet weight • Peripheral quantitative computerized tomography (pQCT). A pQCT X-ray machine (Stratec XCT Reasearch M, Norland Medical Systems, Fort Atkinson, Wis.) with version 5.40 was used to scan femurs from this study. A cross sectional slice 1 mm in thickness was taken of the femoral metaphysis approximately 5 mm proximal to the distal end. A voxel size of 0.10 mm was used, with dimensions of 100×100×1000 micometers. Cortical bone was defined and analyzed using contour mode 2 and cortical mode 4. The cortical shell was distinguished from soft tissue with an outer threshold setting of 349 mg/cm^3. Furthermore, cortical bone along the endocortical surface was determined with an inner threshold of 529 mg/cm^3. In order to determine the presence of trabecular bone, peel mode 4 was used. (Sub)Cortical bone was distinguished from cancellous bone with a threshold setting of 655 mg/cm^3. An additional concentric peel was also used to eliminate (sub)cortical bone from any analyses. For trabecular and cortical bone, content, density and area were determined. […] Tibiae were removed upon necropsy and removed of tissue. The proximal portion of the tibia was fixed in 70% ethanol, dehydrated in graded concentrations of ethanol, defatted in acetone, and embedded in methyl methacrylate. Four and ten μm sections were taken to determine several histomorphometric parameters with an Image Analysis System (Osteomeasure, Inc., Atlanta, Ga.). The 10 μm remained unstained while the 4 μm section was stained with modified Masson's Trichrome stain (5,6,7). Statistics
(§5) Statistics were calculated using StatView 4.0 software (Abacus Concepts, Inc., Berkeley, Calif.). Fisher's PLSD was used to determine the differences between each group. A p value<0.05 was considered a significant difference.

[2] = system: OVX-induced bone resorption and bone turnover; experiment: Dynamic histomorphometry of the proximal tibial metaphysis in OVX rats; assay type: in vivo, Sprague-Dawley female rats; conditions: daily gavage 28 days, EE 0.03 mg/kg, LAS 0.1 mg/kg
Description: as §1, §4, §5

estrogen receptor α = estrogen receptor α (Homo sapiens, UniProt P03372); conditions: previously reported; similar to the binding of estradiol; cited from earlier work
estrogen receptor β = estrogen receptor β (Homo sapiens, UniProt Q92731); conditions: previously reported; similar to the binding of estradiol; cited from earlier work
breast cancer = conditions: previously reported; cited from earlier work
[3] = system: uterine cancer cell lines; conditions: previously reported; cited from earlier work

Sequence of estrogen receptor β (Q92731 whole entry): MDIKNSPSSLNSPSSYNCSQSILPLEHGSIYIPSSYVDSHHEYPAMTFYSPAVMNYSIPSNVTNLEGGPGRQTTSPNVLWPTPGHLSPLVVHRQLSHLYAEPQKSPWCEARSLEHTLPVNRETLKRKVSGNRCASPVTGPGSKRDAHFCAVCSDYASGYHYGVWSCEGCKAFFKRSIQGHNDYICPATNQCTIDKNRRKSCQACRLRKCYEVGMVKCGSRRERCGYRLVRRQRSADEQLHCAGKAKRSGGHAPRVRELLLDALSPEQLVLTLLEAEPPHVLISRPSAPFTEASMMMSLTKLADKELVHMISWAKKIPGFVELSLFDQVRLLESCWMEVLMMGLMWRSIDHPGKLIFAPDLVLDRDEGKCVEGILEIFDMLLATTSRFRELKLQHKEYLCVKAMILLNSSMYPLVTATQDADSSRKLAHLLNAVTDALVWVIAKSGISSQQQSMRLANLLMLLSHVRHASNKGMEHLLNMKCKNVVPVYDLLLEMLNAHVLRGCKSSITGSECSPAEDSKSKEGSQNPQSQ
Sequence of estrogen receptor α (P03372 whole entry): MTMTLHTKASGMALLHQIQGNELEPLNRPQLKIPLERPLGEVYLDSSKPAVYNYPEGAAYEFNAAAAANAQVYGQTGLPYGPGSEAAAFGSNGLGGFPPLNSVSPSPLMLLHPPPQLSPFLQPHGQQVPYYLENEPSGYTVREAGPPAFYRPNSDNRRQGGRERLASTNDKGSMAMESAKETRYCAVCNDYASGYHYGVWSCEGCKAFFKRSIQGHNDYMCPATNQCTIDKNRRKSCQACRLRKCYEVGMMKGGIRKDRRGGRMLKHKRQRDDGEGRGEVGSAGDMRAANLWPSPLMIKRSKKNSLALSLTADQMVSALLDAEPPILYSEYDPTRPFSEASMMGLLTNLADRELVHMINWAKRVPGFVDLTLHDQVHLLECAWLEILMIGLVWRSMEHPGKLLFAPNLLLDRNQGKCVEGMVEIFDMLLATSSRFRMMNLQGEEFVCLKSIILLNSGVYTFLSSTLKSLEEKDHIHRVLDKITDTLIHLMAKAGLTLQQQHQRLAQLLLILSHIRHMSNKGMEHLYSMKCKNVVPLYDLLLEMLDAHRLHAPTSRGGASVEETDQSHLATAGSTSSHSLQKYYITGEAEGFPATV

Row | Compound | total serum cholesterol (TSC) [1] | uterine wet weight (uterus of OVX rats; daily gavage 28 days, EE 0.03 mg/kg, LAS 0.1 mg/kg) | pQCT cortical content, distal femur (OVX-induced bone loss) | pQCT total density, distal femur (OVX-induced bone loss) | OVX-induced bone loss (OVX-induced bone loss) | bone formation rate (BFR/BS) [2] | mineral apposition rate (MAR) [2] | mineralizing surface (MS/BS) [2] | osteoclast number (Oc.N/BS) [2] | osteoclast surface (Oc.S/BS) [2] | total serum cholesterol (TSC) ([1]; tartrate salt) | effect of LAS on the uterine effects of EE on co-administration (uterus of OVX rats; EE 0.03 mg/kg + LAS 0.1 mg/kg, 28 days, tartrate salt) | binding to estrogen receptor α (estrogen receptor α) | binding to estrogen receptor β (estrogen receptor β) | proliferation of breast cancer in vivo (breast cancer) | proliferation of uterine cancer cell lines in vitro [3]
1 | C#C[C@]1(O)CC[C@H]2[C@@H]3CCc4cc(O)ccc4[C@H]3CC[C@@]21C [EE, 17α-ethanyl estradiol, reference compound] | completely prevented this increase | maintained the uterine wet weight at the level of sham controls | completely prevented the OVX-induced decrease | completely prevented the OVX-induced decrease | completely prevented OVX-induced bone loss | completely prevented these changes | completely prevented these changes | completely prevented these changes | completely prevented these changes | completely prevented these changes |  |  |  |  |  | 
2 | O=C(O)C(O)C(O)C(=O)O.Oc1ccc2c(c1)CC[C@H](c1ccccc1)[C@@H]2c1ccc(OCCN2CCCC2)cc1 [LAS, (−)-cis-6-phenyl-5-[4-(2-pyrrolidin-1-yl-ethoxy)-phenyl]-5,6,7,8-tetrahydro-naphthalene-2-ol, tartrate salt] |  |  | completely prevented the OVX-induced decrease | completely prevented the OVX-induced decrease | completely prevented OVX-induced bone loss | completely prevented these changes | completely prevented these changes | completely prevented these changes | completely prevented these changes | completely prevented these changes | prevented the OVX-induced increase in TSC; also recorded: significantly decreased TSC to a level below both sham controls and rats treated with EE | blocked the agonistic effects of EE in the uterus of OVX rats; also recorded: antagonized the uterine hypertrophy effects induced by EE | bound selectively and with high affinity | bound selectively and with high affinity | antagonizes the proliferation | antagonizes the proliferation
